Patent publication US11178870B2 (priority 2017, dated 2021)

Legend:
Assay type in all cases: in vivo
Magnaporthe grisea = assay: whole plant or invertebrate; settings: Pyricularia oryzae, in Oryza sativa, read-out: Test A control value
Botrytis cinerea = assay: Test Example B: Gray mold on tomato; settings: Gray mold on tomato, read-out: Test B control value
Alternaia brassicicola = assay: Test Example C: Alternaria sooty spot on cabbage; settings: Brassica oleracea; Alternaria sooty spot on cabbage; read-out: Test C control value
[1] = system: Blumeria graminis f. sp. hordei; assay: Test Example D: Powdery mildew on barley; settings: Powdery mildew on barley, read-out: Test D control value
Puccinia recondita = assay: Test Example E: Brown rust on wheat; settings: Brown rust on wheat, read-out: Test E control value
Phytophthora infestans = assay: whole plant or invertebrate; settings: in Solanum lycopersicum, read-out: Test F control value
Plasmopara viticola = assay: Test Example G: Downy mildew on vine; settings: Downy mildew on vine, 250 ppm sprayed, 2.5 ml/pot, 7 to 10 days after inoculation, read-out: Test G control value

Row | SMILES | pest or weed control at 250 µg/mL (Magnaporthe grisea) | pest or weed control at 250 µg/mL (Botrytis cinerea) | pest or weed control at 250 µg/mL (Alternaia brassicicola) | pest or weed control at 250 µg/mL [1] | pest or weed control at 250 µg/mL (Puccinia recondita) | pest or weed control at 250 µg/mL (Phytophthora infestans) | pest or weed control at 250 ppm (Plasmopara viticola)
1 | CCn1c(-c2c(F)cc(F)cc2F)c(-c2nn(C)cc2Br)cc(Cl)c1=O [compound 24, 5-(4-bromo-1-methyl-1H-pyrazol-3-yl)-3-chloro-1-ethyl-6-(2,4,6-trifluorophenyl)pyridin-2(1H)-one] | > 50% | > 50% | > 50% | > 50% | > 50% | < 50% | > 50%
2 | CCN1C(=O)CCC(n2cccn2)=C1c1c(F)cc(F)cc1F [compound 25, 1-ethyl-5-(1H-pyrazol-1-yl)-6-(2,4,6-trifluorophenyl)-3,4-dihydropyridin-2(1H)-one] | < 50% | < 50% | > 50% | > 50% | < 50% | < 50% | < 50%
3 | CCn1c(-c2c(F)cc(F)cc2F)c(-n2cccn2)ccc1=O [compound 26, 1-ethyl-5-(1H-pyrazol-1-yl)-6-(2,4,6-trifluorophenyl)pyridin-2(1H)-one] | > 50% | > 50% | > 50% | > 50% | > 50% | < 50% | < 50%
4 | CCn1c(-c2c(F)cc(F)cc2F)c(-n2cc(Cl)cn2)ccc1=O [compound 27, 5-(4-chloro-1H-pyrazol-1-yl)-1-ethyl-6-(2,4,6-trifluorophenyl)-pyridin-2(1H)-one] | < 50% | > 50% | > 50% | > 50% | > 50% | < 50% | < 50%
5 | CCn1c(-c2c(F)cc(F)cc2F)c(-n2cncn2)cc(Cl)c1=O [compound 34, 3-chloro-1-ethyl-5-(1H-1,2,4-triazol-1-yl)-6-(2,4,6-trifluorophenyl)pyridin-2(1H)-one] | > 50% | > 50% | > 50% | > 50% | > 50% | < 50% | < 50%
6 | CCn1c(-c2c(F)cc(F)cc2F)c(-n2ncnc2Br)cc(Cl)c1=O [compound 35, 5-(5-bromo-1H-1,2,4-triazol-1-yl)-3-chloro-1-ethyl-6-(2,4,6-trifluorophenyl)pyridin-2(1H)-one] | > 50% | > 50% | > 50% | > 50% | > 50% | < 50% | < 50%
7 | CCn1c(-c2c(F)cc(F)cc2F)c(-c2cnco2)cc(Cl)c1=O [compound 36, 3-chloro-1-ethyl-5-(oxazol-5-yl)-6-(2,4,6-trifluorophenyl)pyridin-2(1H)-one] | > 50% | < 50% | > 50% | < 50% | > 50% | < 50% | < 50%
8 | CCn1c(-c2c(F)cc(F)cc2F)c(-n2cc(Cl)cn2)cc(Cl)c1=O [compound 40, 3-chloro-5-(4-chloro-1H-pyrazol-1-yl)-1-ethyl-6-(2,4,6-trifluoro-phenyl)pyridin-2(1H)-one] | > 50% | > 50% | > 50% | > 50% | > 50% | < 50% | < 50%
9 | CCn1c(-c2c(F)cc(OC)cc2F)c(-n2cc(Cl)cn2)cc(Cl)c1=O [compound 41, 3-chloro-5-(4-chloro-1H-pyrazol-1-yl)-6-(2,6-difluoro-4-methoxyphenyl)-1-ethylpyridin-2(1H)-one] | > 50% | > 50% | > 50% | > 50% | > 50% | < 50% | < 50%
10 | CCn1c(-c2c(F)cccc2F)c(-c2ocnc2C)cc(Cl)c1=O [compound 43, 3-chloro-6-(2,6-difluorophenyl)-1-ethyl-5-(4-methyloxazol-5-yl)pyridin-2(1H)-one] | > 50% | > 50% | > 50% | > 50% | > 50% | < 50% | < 50%
11 | CCn1c(-c2c(F)cc(F)cc2F)c(-n2cc(Br)cn2)cc(Cl)c1=O [compound 70, 5-(4-bromo-1H-pyrazol-1-yl)-3-chloro-1-ethyl-6-(2,4,6-trifluorophenyl)pyridin-2(1H)-one] | > 50% | > 50% | > 50% | > 50% | > 50% | < 50% | < 50%
